For experiment [1], the target named is PLK1 association with c-RAF^Ser338 (Homo sapiens, UniProt P04049). The experiment can be described thus: PLK1 immunoprecipitation, associated c-RAF^Ser338 in HCT116 cells. The format is cell-based. Particulars: HCT116, anti-PLK1 immunoprecipitation.
Experiment [2] has as its system GTP-RAS in HeLa and A431 cell lines. The experiment can be described thus: Active RAS pull-down after EGF stimulation, wild-type RAS cells. The format is cell-based. Particulars: serum-starved HeLa and A431 cells, 2 μM.
The next experiment concerns the target c-RAF/B-RAF heterodimer (Homo sapiens, UniProt P04049+P15056). The experiment can be described thus: c-RAF/B-RAF co-immunoprecipitation after EGF stimulation. The format is cell-based. Particulars: EGF-stimulated HeLa and A431 cells.
The target in experiment [3] is GST-RBD (AA 1–149) of c-RAF (Homo sapiens, UniProt P04049). The experiment can be described thus: Differential scanning fluorimetry. The format is binding. Particulars: DSF.
GST-RBD (AA 1–149) of c-RAF, sequence (P04049 1-149): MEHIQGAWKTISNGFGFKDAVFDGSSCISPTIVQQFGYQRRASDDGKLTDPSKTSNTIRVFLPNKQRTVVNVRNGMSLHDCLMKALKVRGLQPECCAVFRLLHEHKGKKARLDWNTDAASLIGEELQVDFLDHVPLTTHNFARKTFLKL
Experiment [4] addresses kinase domain (KD) of c-RAF (AA 306–648) (Homo sapiens, UniProt P04049). The experiment can be described thus: Differential scanning fluorimetry. The format is binding. Particulars: DSF.
For experiment [5], the system named is c-RAF kinase activity in HeLa and A431 cells. As to the kind of experiment: RAF kinase activity of c-RAF immunoprecipitates from EGF-stimulated cells. The format is cell-based. Particulars: pre-treatment of cells; MEK substrate.
For experiment [6], the system named is c-RAF^Ser338 phosphorylation. The experiment can be described thus: EGF-induced c-RAF^Ser338 phosphorylation in HCT116 cells. The format is cell-based, human. The conditions noted are these: serum-starved HCT116, EGF 5 min.
Experiment [7] concerns MEK and ERK phosphorylation in HeLa and A431 cells. As to the kind of experiment: MEK and ERK phosphorylation western blot, HeLa and A431 cells. The format is cell-based.
Another experiment concerns mutant c-RAF RBDs. The experiment can be described thus: MST binding to mutant c-RAF RBDs. The conditions noted are these: V69A.
Experiment [8] concerns PanIN lesions (K-RAS^G12D). As to the kind of experiment: Pdx-cre:Kras^+/LSL G12D mouse model of pancreatic intraepithelial neoplasia. The format is in vivo. The conditions noted are these: 14 days.
The target of the next experiment is three RAF proteins. The experiment can be described thus: In vitro RAF kinase assays. The format is biochemical.
Another experiment has as its target recombinant Ral-GDS RBD (Homo sapiens, UniProt Q12967). As to the kind of experiment: DSF and biotin-RGS pull-down, Ral-GDS RBD. The format is binding. Particulars: DSF and pull-down with biotin-RGS conjugate.
The test system of the next experiment is PLK1. The conditions noted are these: subsequent experiments by us and others; ref Steegmaier et al., 2007; cited from earlier work.
Experiment [9] deals with A549 (K-RAS^G12S) xenograft. The experiment can be described thus: A549 xenograft tumor growth. Particulars: 100 mg/kg twice daily i.p., 16 days, nude mice.
Experiment [10] deals with HCT116 (K-RAS^G13D) xenograft. As to the kind of experiment: HCT116 xenograft tumor growth. Particulars: 100 mg/kg twice daily i.p., 16 days, nude mice.
Experiment [11] has as its system MDS patients with monosomy 7 and trisomy 8. The conditions noted are these: phase III, MDS with monosomy 7 and trisomy 8; ref Garcia-Manero et al., 2016; cited from earlier work.
The subject of experiment [12] is c-RAF^Ser338 phosphorylation. As to the kind of experiment: c-RAF^Ser338 phosphorylation in synchronized HCT116 cells entering mitosis. The conditions noted are these: HCT116, released from double thymidine block. The format is cell-based, human.
Experiment [13] deals with GST-tagged c-RAF RBD (aa 1–149) (Homo sapiens, UniProt P04049). The experiment can be described thus: Microscale thermophoresis.
GST-tagged c-RAF RBD (aa 1–149), sequence (P04049 1-149): as above
Experiment [14] concerns the target GTP-RAS and CRAF-RBD interaction (Homo sapiens, UniProt P04049). As to the kind of experiment: In vitro association of GST-RBD with GTP-RAS from EGF-stimulated A431 lysates. The format is biochemical. Particulars: GST-RBD pre-incubated with increasing concentrations.
For experiment [15], the system named is HA-tagged mutant N-RAS G12D GTP-RAS in HeLa cells. As to the kind of experiment: Active RAS pull-down, HeLa cells expressing mutant N-RAS G12D. Particulars: pre-incubation. The format is cell-based.
The target in experiment [16] is GST-tagged B-RAF RBD (aa 151–230) (Homo sapiens, UniProt P15056). The experiment can be described thus: Microscale thermophoresis.
GST-tagged B-RAF RBD (aa 151–230), sequence (P15056 151-230): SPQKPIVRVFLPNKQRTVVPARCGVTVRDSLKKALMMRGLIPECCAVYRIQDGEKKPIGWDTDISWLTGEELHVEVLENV
Experiment [17] concerns c-RAF^Ser338, MEK, ERK, and AKT phosphorylation. As to the kind of experiment: Western blot of xenograft tumor extracts. The format is in vivo, mouse. Particulars: tumor extracts vs placebo.
In experiment [18] the test system is MEK and ERK activation in N-RAS (G12D)-expressing HeLa, HCT-116 and A549 cells. As to the kind of experiment: MEK and ERK activation western blot, mutant RAS cells. The format is cell-based.

Each structure is given as a SMILES string. pKd: −log10 of the molar value.

kinase domain (KD) of c-RAF (AA 306–648), sequence (P04049 306-648): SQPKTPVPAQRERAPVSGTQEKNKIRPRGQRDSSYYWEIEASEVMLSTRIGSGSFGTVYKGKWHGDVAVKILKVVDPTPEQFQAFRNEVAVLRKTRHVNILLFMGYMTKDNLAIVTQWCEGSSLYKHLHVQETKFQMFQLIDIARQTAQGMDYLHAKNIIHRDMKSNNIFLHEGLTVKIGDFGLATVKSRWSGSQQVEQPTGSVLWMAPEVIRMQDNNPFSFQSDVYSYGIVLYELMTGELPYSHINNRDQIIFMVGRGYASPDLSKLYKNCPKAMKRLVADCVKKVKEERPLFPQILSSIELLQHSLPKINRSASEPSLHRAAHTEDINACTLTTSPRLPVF
PLK1 association with c-RAF^Ser338, sequence (P04049 whole entry): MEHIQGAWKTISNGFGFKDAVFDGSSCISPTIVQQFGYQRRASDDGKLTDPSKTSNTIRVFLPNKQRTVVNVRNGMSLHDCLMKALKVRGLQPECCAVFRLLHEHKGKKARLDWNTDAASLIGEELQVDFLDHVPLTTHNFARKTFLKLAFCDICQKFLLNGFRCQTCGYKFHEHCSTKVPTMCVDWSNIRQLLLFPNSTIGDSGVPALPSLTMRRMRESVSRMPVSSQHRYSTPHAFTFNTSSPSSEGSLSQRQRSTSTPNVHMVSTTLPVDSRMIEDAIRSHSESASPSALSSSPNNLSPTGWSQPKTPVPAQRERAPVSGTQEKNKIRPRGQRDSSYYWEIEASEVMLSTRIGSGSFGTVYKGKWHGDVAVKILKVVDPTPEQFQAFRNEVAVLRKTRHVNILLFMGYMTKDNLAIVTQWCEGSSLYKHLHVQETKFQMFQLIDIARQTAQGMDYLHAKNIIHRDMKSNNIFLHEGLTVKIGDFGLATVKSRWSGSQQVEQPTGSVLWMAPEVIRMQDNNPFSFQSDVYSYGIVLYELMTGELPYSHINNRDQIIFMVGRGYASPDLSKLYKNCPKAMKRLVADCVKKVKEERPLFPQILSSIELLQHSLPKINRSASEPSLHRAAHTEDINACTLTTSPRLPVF
c-RAF/B-RAF heterodimer, sequence (P04049 whole entry, the tested form may be a part): as the sequence (P04049 whole entry) above
c-RAF/B-RAF heterodimer, sequence (P15056 whole entry, the tested form may be a part): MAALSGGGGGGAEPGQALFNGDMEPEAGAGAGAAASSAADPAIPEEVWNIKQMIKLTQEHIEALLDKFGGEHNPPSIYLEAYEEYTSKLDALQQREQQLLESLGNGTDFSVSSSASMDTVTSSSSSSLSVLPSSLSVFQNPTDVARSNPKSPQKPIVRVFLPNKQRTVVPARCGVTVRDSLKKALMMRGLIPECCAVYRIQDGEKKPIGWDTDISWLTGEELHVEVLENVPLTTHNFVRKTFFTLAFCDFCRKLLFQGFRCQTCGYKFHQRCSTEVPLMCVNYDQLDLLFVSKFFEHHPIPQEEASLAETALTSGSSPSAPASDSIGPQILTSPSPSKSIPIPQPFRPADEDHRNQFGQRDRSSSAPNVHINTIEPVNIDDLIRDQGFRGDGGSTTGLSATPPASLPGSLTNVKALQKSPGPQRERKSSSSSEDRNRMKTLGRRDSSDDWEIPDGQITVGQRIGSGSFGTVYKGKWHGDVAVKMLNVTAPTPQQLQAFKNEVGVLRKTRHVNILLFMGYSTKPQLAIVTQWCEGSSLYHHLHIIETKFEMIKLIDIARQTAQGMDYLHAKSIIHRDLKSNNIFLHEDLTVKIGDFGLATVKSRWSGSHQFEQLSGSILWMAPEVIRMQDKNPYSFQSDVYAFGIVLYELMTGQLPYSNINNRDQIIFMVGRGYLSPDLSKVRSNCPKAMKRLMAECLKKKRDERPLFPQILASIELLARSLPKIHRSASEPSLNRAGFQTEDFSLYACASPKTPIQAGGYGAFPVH
recombinant Ral-GDS RBD, sequence (Q12967 798-885 limits assumed): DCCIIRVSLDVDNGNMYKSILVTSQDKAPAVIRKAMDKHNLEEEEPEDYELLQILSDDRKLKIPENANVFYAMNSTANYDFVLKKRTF
GTP-RAS and CRAF-RBD interaction, sequence (P04049 56-131 limits assumed): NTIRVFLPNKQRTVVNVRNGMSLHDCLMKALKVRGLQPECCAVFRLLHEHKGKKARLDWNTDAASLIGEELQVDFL

Turning to `COC(=O)Nc1nc2ccc(C(=O)c3cccs3)cc2[nH]1` [nocadazole, nocodazole, reference compound], the “association of PLK1 with c-RAF^Ser338” value in [1] is given as “strong association”.
Turning to `CCCS(=O)(=O)Nc1ccc(F)c(C(=O)c2c[nH]c3ncc(-c4ccc(Cl)cc4)cc23)c1F` [PLX4032, vemurafenib, reference compound], the “GTP-RAS pulled down by GST-RBD after EGF stimulation” value in experiment [2] was “GTP-RAS could readily be pulled down”. Moreover, the c-RAF/B-RAF heterodimer formation result on c-RAF/B-RAF heterodimer is “enhanced the association”. Besides, in [3], the “interaction with c-RAF RBD (change in Tm)” value is “not with the RBD”. For the same compound, the “interaction with c-RAF kinase domain (thermal shift)” value in experiment [4] is “strong thermal shift”. Besides, the “EGF-induced activation of RAF kinase activity” value in [5] is “enhancement”. For the same compound, the “EGF-induced c-RAF^Ser338 phosphorylation” value in experiment [6] is recorded as “little or no effect”. The “phosphorylation status of MEK and ERK” value in [7] was “a small increase or no change”.
Turning to `COc1cc(OC)c(/C=C/S(=O)(=O)Cc2ccc(OC)c(NCC(=O)O)c2)c(OC)c1` [RGS, rigosertib], the “binding affinity to c-RAF RBD mutants with reduced RAS binding” value with mutant c-RAF RBDs (mutants K65A, V70A, and V88A, increased Kd values in MST) is listed as “reduced binding affinities”. Also, the “binding to c-RAF RBD mutants that abolished RAS binding” value in the experiment on mutant c-RAF RBDs (mutations T57A, R67A, L62A, V69G, and T68A) is reported as “disrupted binding”. For the same compound, the “decrease in number of PanIN 1B, 2, and 3 grade tumors” value in experiment [8] (200 mg/kg twice daily i.p.) was “statistically significant”. In experiment [8] (200 mg/kg twice daily i.p.), the “number of pancreatic lesions, less than placebo-treated group” value was ~ 3 fold. Also, the “cleaved caspase-3-positive cells in PanIN lesions, greater than control” value in experiment [8] (200 mg/kg twice daily) is roughly 4 fold. For the same compound, in [8] (immunohistochemistry, 200 mg/kg twice daily), the “phosphorylated ERK and AKT^Ser473 in PanINs” value is listed as “markedly decreased levels”. Besides, at three RAF proteins, the “kinase activity of the three RAF proteins in in vitro assays” value is given as “does not inhibit”. Further, the “GTP-RAS pulled down by GST-RBD after EGF stimulation” value in [2] is reported as “very little or no GTP-RAS could be precipitated”. On recombinant Ral-GDS RBD, the “binding to Ral-GDS RBD” value is listed as “binds to recombinant Ral-GDS RBD, in a concentration-dependent manner”. The PLK1 kinase activity result in the experiment on PLK1 is recorded as “does not directly inhibit”. Besides, the tumor growth entry in experiment [9] and in [10] was “dramatically decreased tumor growth” each time. Moreover, in experiment [1], the “association of PLK1 with c-RAF^Ser338” value is “little or no association”. The c-RAF/B-RAF heterodimer formation entry on c-RAF/B-RAF heterodimer was “nearly complete inhibition”. Moreover, the “hazard ratio for survival” value in experiment [11] was 0.25–0.30. Besides, the “reduction of c-RAF^Ser338 phosphorylation” value in [12] worked out at 90%. The negative logarithm of the Kd (pKd) in experiment [13] was 9.74; in experiment [16] it was 9.15. The “interaction with c-RAF RBD (change in Tm)” value in [3] is listed as “bound to RGS”. Also, the “association of GST-RBD with activated RAS” value in experiment [14] is “inhibition of its association with activated RAS in a concentration-dependent manner”. In addition, the “levels of mutant GTP-RAS bound to GST-RBD” value in experiment [15] was “no effect on the levels of GTP-RAS”. Moreover, the “interaction with c-RAF kinase domain (thermal shift)” value in experiment [4] is “did not interact”. Moreover, in [17], the “c-RAF^Ser338, MEK, ERK, and AKT phosphorylation in tumors” value is “dramatically reduced”. In addition, in [5], the “EGF-induced activation of RAF kinase activity” value was “inhibits EGF-induced activation of RAF kinase activity”. For the same compound, the “EGF-induced c-RAF^Ser338 phosphorylation” value in experiment [6] is given as “completely inhibited”. Also, the “phosphorylation status of MEK and ERK” value in experiment [7] is “reduction in MEK and ERK phosphorylation”. Besides, the “MEK and ERK activation” value in experiment [18] was “inhibits MEK and ERK activation equally well”.
